# Measured values as given in patent US10759814B2, “Pharmaceutical compositions containing substituted polycyclic pyridone derivatives and prodrug thereof” (priority 2016, dated 2020).
# Like-named read-outs stand apart in the source and are kept apart here.
# Assays:
# [1] = type: in vivo; conditions: after oral administration of Compound II-6 to rat under non-fasting conditions
# Excerpt: FIG. 1 is a result of measuring the plasma concentration of Compound III-2, after oral administration of prodrug Compound II-6, the parent compound of which is Compound III-2, to rat under non-fasting conditions.
# FIG. 2 is a result of measuring the plasma concentration of Compound II-6, after oral administration of prodrug Compound II-6, the parent compound of which is Compound III-2, to rat under non-fasting conditions.
# Test Example 13: Transition of Plasma Concentration
# The plasma concentration of Compound III-2 and Compound II-6 after oral administration of prodrug Compound II-6, the parent compound of which was Compound III-2, to rat under non-fasting conditions was measured.
# influenza virus [2] = type: in vivo, human
# [3] = type: in vivo, human; conditions: Compound II-6 single 40 or 80 mg; Oseltamivir 75 mg twice a day for 5 days
# Excerpt: (4) Incidence of side effects
# (4) Incidence of Side Effects
# The number of side-effect episodes and the number of patients with side effect were counted for each administration group.
# influenza virus [4] = assay: Clinical test (Test Example 15): time to alleviation of influenza symptoms; conditions: single oral 10 mg
# Excerpt: Test Example 15: Clinical Test
# As for the primary endpoint, subjects made evaluations by themselves on a 4-point scale [0: none, 1: mild, 2: moderate, 3: severe] concerning the time to alleviation of influenza symptoms (the time from the beginning of administration of the investigational drug until 7 influenza symptoms (“cough”, “sore throat”, “headache”, “nasal congestion”, “feverishness or chills”, “muscular or joint pain”, and “fatigue”) were alleviated) to evaluate the efficacy of the investigational drug over the placebo.
# Patients who satisfied all of the following criteria were selected as subjects.
# (a) Male or female patients at 20 years old or older and younger than 65 years old
# (b) Patients satisfying all of the following criteria and diagnosed with influenza virus infectious disease
# The main efficacy endpoint is the time to alleviation of influenza symptoms (the time to alleviation of influenza symptoms).
# It is the time from the beginning of administration until alleviation of influenza symptoms. Alleviation of influenza symptoms refers to when all 7 influenza symptoms (cough, sore throat, headache, nasal congestion, feverishness or chills, muscular or joint pain, fatigue) become “0: none” or “1: mild” in the patient diary that the subject keeps, and this condition continues at least 21.5 hours (24 hours—10%).
# Secondary Efficacy Endpoint
# The secondary efficacy endpoint is as follows.
# (1) Time to Alleviation of Each Influenza Symptom
# It is the time from the beginning of administration until alleviation of each influenza symptom. Alleviation of a symptom refers to when the target item becomes “0: none” or “1: mild”, and this condition continues at least 21.5 hours (24 hours—10%).
# Analysis of Primary Endpoint
# As for the time to alleviation of influenza symptoms, which is the primary endpoint, the primary analysis and the secondary analysis are described. In addition to the ITTI group, the primary analysis was also performed on the PPS group for sensitivity analysis. Other analyses were performed only on the ITTI group.
# The hazard ratio, 95% confidence interval, and P value of each administered group relative to the placebo group were calculated by a Cox proportional hazard model using the time to alleviation of influenza symptoms as a response, the administered groups as fixed effects, and the current smoking habit and the total score of 7 influenza symptoms at baseline before administration, which are allocation factors, as covariates. In order to prevent an increase of the probability of type I error due to performing the test multiple times, the P value was adjuste d by the Hommel's method.
# The placebo group and each investigational drug administered group were compared by stratified generalized Wilcoxon test using the time to alleviation of influenza symptoms as a response, the administered groups as explanatory variables, and the category (11 points or less, 12 points or more) of the total score of 7 influenza symptoms before administration and the smoking habit, which are allocation factors, as stratification factors.
# Also, a Kaplan-Meier survival curve was drawn for each group to calculate the median time to alleviation of influenza symptoms and the 95% confidence interval thereof. The Greenwood's method was used for calculating the confidence interval.
# Analysis of Secondary Endpoint
# (1) Time Until Each Alleviation of Influenza Symptom
# The same analysis as in the primary endpoint was performed, with the time until each alleviation of influenza symptom being regarded as a response. At this time, cases where the symptom before administration was “0: none” or “1: mild” were excluded from the analysis target.
# [5] = Day 2 (24 hours later), 12 to <65 years old
# [6] = Day 2 (24 hours later), 20 to <65 years old
# [7] = Day 3 (48 hours later), 12 to <65 years old
# [8] = Day 3 (48 hours later), 20 to <65 years old
# [9] = Day 4 (72 hours later), 12 to <65 years old
# [10] = Day 4 (72 hours later), 20 to <65 years old
# [11] = Day 5 (96 hours later), 12 to <65 years old
# [12] = Day 5 (96 hours later), 20 to <65 years old
# [13] = Day 6 (120 hours later), 12 to <65 years old
# [14] = Day 6 (120 hours later), 20 to <65 years old
# [15] = Day 9 (192 hours later), 12 to <65 years old
# [16] = Day 9 (192 hours later), 20 to <65 years old
# [17] = patients with symptom moderate or severe at baseline
compound,measurement,setting,value
COC(=O)OCOc1c2n(ccc1=O)N([C@@H]1c3ccccc3SCc3c1ccc(F)c3F)[C@@H]1COCCN1C2=O [II-6],plasma concentration of Compound II-6,[1],a determination limit or less
same,Time (median) to termination of viral shedding based on virus titer,influenza virus [2]; 12 to <65 years old,24.0 h
same,"Time to termination of viral shedding, difference between groups vs placebo",influenza virus [2]; 12 to <65 years old,-72.0 h
same,"Time to termination of viral shedding, difference between groups vs Oseltamivir",influenza virus [2]; 20 to <65 years old,-48.0 h
same,"Amount of change in virus titer from baseline, mean",influenza virus [2]; [5],−4.44 log10 [TCID50/mL]
same,Proportion of patients having a positive influenza virus titer,influenza virus [2]; [5],47.8%
same,"Amount of change in virus titer from baseline, mean",influenza virus [2]; [6],−4.39 log10 [TCID50/mL]
same,Proportion of patients having a positive influenza virus titer,influenza virus [2]; [6],47.6%
same,"Amount of change in virus titer from baseline, mean",influenza virus [2]; [7],−4.82 log10 [TCID50/mL]
same,Proportion of patients having a positive influenza virus titer,influenza virus [2]; [7],21.5%
same,"Amount of change in virus titer from baseline, mean",influenza virus [2]; [8],−4.78 log10 [TCID50/mL]
same,Proportion of patients having a positive influenza virus titer,influenza virus [2]; [8],19.8%
same,"Amount of change in virus titer from baseline, mean",influenza virus [2]; [9],−4.50 log10 [TCID50/mL]
same,Proportion of patients having a positive influenza virus titer,influenza virus [2]; [9],16.7%
same,"Amount of change in virus titer from baseline, mean",influenza virus [2]; [10],−4.46 log10 [TCID50/mL]
same,Proportion of patients having a positive influenza virus titer,influenza virus [2]; [10],16.1%
same,"Amount of change in virus titer from baseline, mean",influenza virus [2]; [11],−4.95 log10 [TCID50/mL]
same,Proportion of patients having a positive influenza virus titer,influenza virus [2]; [11],13.6%
same,"Amount of change in virus titer from baseline, mean",influenza virus [2]; [12],−4.95 log10 [TCID50/mL]
same,Proportion of patients having a positive influenza virus titer,influenza virus [2]; [12],13.0%
same,"Amount of change in virus titer from baseline, mean",influenza virus [2]; [13],−4.58 log10 [TCID50/mL]
same,Proportion of patients having a positive influenza virus titer,influenza virus [2]; [13],8.2%
same,"Amount of change in virus titer from baseline, mean",influenza virus [2]; [14],−4.56 log10 [TCID50/mL]
same,Proportion of patients having a positive influenza virus titer,influenza virus [2]; [14],5.6%
same,"Amount of change in virus titer from baseline, mean",influenza virus [2]; [15],−5.06 log10 [TCID50/mL]
same,Proportion of patients having a positive influenza virus titer,influenza virus [2]; [15],2.9%
same,"Amount of change in virus titer from baseline, mean",influenza virus [2]; [16],−5.03 log10 [TCID50/mL]
same,Proportion of patients having a positive influenza virus titer,influenza virus [2]; [16],3.0%
same,Incidence of adverse events the causal relationship of which cannot be denied (patients),[3],4.4%
same,"Time until cough symptom is alleviated, difference from placebo",influenza virus [4],-0.1 h
same,"Time until cough symptom is alleviated, hazard ratio (Cox model relative to placebo)",influenza virus [4],0.941
same,"Time until fatigue symptom is alleviated, difference from placebo",influenza virus [4],-10.7 h
same,"Time until fatigue symptom is alleviated, hazard ratio (Cox model relative to placebo)",influenza virus [4],0.783
same,"Time until feverishness or chills symptom is alleviated, difference from placebo",influenza virus [4],-4.1 h
same,"Time until feverishness or chills symptom is alleviated, hazard ratio (Cox model relative to placebo)",influenza virus [4],0.635
same,"Time until headache symptom is alleviated, difference from placebo",influenza virus [4],-1.5 h
same,"Time until headache symptom is alleviated, hazard ratio (Cox model relative to placebo)",influenza virus [4],0.803
same,"Time until muscular or joint pain symptom is alleviated, difference from placebo",influenza virus [4],-10.7 h
same,"Time until muscular or joint pain symptom is alleviated, hazard ratio (Cox model relative to placebo)",influenza virus [4],0.77
same,"Time until nasal congestion symptom is alleviated, difference from placebo",influenza virus [4],-17.6 h
same,"Time until nasal congestion symptom is alleviated, hazard ratio (Cox model relative to placebo)",influenza virus [4],0.742
same,"Time until sore throat symptom is alleviated, difference from placebo",influenza virus [4],9.1 h
same,"Time until sore throat symptom is alleviated, hazard ratio (Cox model relative to placebo)",influenza virus [4],1.312
same,"Time to alleviation of influenza symptoms, difference from placebo",influenza virus [4]; ITTI,-23.4 h
same,"Time to alleviation of influenza symptoms, hazard ratio (Cox proportional hazard model relative to placebo)",influenza virus [4]; ITTI,0.758
same,"Time to alleviation of influenza symptoms, median value","influenza virus [4]; influenza patients 20 to <65 years old, ITTI",54.2 h
same,"Time until cough symptom is alleviated, median value",influenza virus [4]; [17],31.1 h
same,"Time until fatigue symptom is alleviated, median value",influenza virus [4]; [17],32 h
same,"Time until feverishness or chills symptom is alleviated, median value",influenza virus [4]; [17],24.7 h
